# Experimental data taken from US7001921B1, “Cell adhesion inhibitors” (Biogen Idec MA Inc., priority 1995, dated 2006).
# Molecular target: T1, VLA4 (Homo sapiens, UniProt P05556+P13612)
# T1 construct: endogenous in cells; host or cells: Ramos cells
# Assay: Inhibition of VLA4-dependent adhesion to BSA-CS1 (labelled Ramos cells)
# Type: cell-based
# Details: binding of BCECF-AM labelled Ramos cells to CS1 peptide-coated wells, 2 mM MnCl2, 30 minutes at room temperature; IC50 range
# Outline: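 Ramos cells labelled with 2 μM BCECF-AM, with 2 mM MnCl2 added to upregulate VLA4, were incubated with test compound (final 0.01 nM–10 μM, triplicate) on BSA-CS1-coated wells for 30 min at room temperature in TRIS buffer pH 7.4. After washing, bound fluorescence was read, with uncoated wells giving non-specific binding.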
# T1 sequence (P13612 34-1032): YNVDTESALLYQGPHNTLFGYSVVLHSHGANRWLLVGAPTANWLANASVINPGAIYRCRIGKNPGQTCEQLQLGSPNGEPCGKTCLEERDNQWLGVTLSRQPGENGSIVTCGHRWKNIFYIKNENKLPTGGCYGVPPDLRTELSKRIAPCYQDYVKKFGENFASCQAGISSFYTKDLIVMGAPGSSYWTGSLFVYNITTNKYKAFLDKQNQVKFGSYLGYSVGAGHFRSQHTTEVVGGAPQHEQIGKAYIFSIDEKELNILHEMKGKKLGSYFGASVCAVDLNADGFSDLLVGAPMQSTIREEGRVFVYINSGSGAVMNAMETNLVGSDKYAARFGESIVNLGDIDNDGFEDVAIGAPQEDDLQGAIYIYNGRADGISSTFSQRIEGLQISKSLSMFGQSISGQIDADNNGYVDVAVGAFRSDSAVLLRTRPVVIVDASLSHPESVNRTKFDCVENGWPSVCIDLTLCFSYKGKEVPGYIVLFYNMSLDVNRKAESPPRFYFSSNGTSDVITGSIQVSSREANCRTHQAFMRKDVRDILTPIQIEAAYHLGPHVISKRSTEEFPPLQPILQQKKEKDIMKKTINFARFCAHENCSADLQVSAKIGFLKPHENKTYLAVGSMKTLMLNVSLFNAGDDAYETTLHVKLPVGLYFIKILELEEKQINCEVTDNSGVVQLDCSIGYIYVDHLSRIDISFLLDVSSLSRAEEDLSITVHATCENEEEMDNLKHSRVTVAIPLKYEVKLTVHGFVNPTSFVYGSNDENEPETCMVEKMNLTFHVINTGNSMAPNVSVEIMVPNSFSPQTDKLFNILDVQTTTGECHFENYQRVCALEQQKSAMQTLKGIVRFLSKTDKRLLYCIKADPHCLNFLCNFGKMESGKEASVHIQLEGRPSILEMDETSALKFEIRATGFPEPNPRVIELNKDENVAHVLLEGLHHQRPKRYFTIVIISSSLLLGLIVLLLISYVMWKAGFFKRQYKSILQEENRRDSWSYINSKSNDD
# T1 sequence (P05556 21-798): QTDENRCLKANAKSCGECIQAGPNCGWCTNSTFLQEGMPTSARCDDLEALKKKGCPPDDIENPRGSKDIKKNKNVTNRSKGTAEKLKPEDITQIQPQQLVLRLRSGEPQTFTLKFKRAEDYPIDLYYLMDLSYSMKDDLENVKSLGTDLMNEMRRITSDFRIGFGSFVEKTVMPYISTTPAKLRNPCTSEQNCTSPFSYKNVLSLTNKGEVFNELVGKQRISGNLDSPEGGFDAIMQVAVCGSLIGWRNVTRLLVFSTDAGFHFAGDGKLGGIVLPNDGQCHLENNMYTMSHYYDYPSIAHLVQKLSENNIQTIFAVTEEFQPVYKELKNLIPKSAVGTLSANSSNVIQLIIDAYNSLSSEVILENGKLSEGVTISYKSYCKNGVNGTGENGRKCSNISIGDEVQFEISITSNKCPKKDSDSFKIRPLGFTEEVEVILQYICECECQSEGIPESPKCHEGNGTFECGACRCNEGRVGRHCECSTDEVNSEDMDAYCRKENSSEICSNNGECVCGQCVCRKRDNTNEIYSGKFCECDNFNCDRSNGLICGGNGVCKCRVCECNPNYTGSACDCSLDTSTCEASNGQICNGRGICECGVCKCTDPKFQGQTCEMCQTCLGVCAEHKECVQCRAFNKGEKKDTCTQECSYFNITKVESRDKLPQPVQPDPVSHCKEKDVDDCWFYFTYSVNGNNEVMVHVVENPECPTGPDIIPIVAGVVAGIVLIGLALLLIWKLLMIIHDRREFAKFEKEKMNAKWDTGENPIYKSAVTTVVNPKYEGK
row,SMILES,IC50 [µM]
1,Cc1ccccc1NC(=O)Nc1ccc(CC(=O)NC(CC(C)C)C(=O)NC(CC(=O)O)c2ccc(C(=O)O)cc2)cc1 (centres unmarked) [compound 1321],< 0.05
2,CC(C)CC(NC(=O)Cc1ccc(NC(=O)c2ccccc2N)cc1)C(=O)NC(CC(=O)O)c1ccccc1 (centres unmarked) [compound 1028],0.05 to 10
3,CC(C)CC(NC(=O)Cc1ccc(NC(=O)c2ccccc2)cc1)C(=O)NC(CC(=O)O)c1ccccc1 (centres unmarked) [compound 1015],0.05 to 10
4,CC(C)CC(NC(=O)Cc1ccc(N)cc1)C(=O)NC(CC(=O)O)c1ccccc1 (centres unmarked) [compound 1016],> 10
5,CC(C)CC(NC(=O)Cc1ccccc1)C(=O)NC(CC(=O)O)c1ccc2c(c1)CCC2 (centres unmarked) [compound 1036],0.05 to 10
6,CC(C)CC(NC(=O)Cc1ccc(NC(=O)Nc2ccccc2)cc1)C(=O)NC(CC(=O)O)Cc1ccccc1 (centres unmarked) [compound 1063],0.05 to 10
7,CC(C)CC(NC(=O)Cc1ccc(N)cc1)C(=O)NC(CC(=O)O)c1ccccc1 (centres unmarked) [compound 1103],> 10
8,O=C(O)CC(NC(=O)C(CC(=O)N1CCSCC1)NC(=O)Cc1ccc(NC(=O)Nc2ccccc2)cc1)c1ccc2c(c1)OCO2 (centres unmarked) [compound 1176],0.05 to 10
9,CC(=O)Nc1cccc(CC(=O)NC(CC(C)C)C(=O)NC(CC(=O)O)c2ccccc2)c1 (centres unmarked) [compound 1018],> 10
10,O=C(O)CC(NC(=O)C(Cc1ccccc1)NC(=O)Cc1ccc(NC(=O)Nc2ccccc2)cc1)c1ccccc1 (centres unmarked) [compound 1130],0.05 to 10
11,COc1ccccc1C(CC(=O)O)NC(=O)C(CC(C)C)NC(=O)Cc1ccccc1 (centres unmarked) [compound 1159],> 10
12,COc1ccc(C(CC(=O)O)NC(=O)C(CCSC)NC(=O)Cc2ccc(NC(=O)Nc3ccccc3C)cc2)cc1 (centres unmarked) [compound 1238],< 0.05
13,CC(C)CC(NC(=O)Cc1cccc(NC(=O)Nc2ccccc2)c1)C(=O)NC(CC(=O)O)c1ccccc1 (centres unmarked) [compound 1054],0.05 to 10
14,CC(C)CC(NC(=O)Cc1ccccc1)C(=O)NC(CC(=O)O)c1ccccc1 (centres unmarked) [compound 1081],0.05 to 10
15,CC(C)CC(NC(=O)Cc1ccc(C(F)(F)F)cc1)C(=O)NC(CC(=O)O)c1ccccc1 (centres unmarked) [compound 1011],> 10
16,CC(C)CC(NC(=O)Cc1ccc(-c2ccccc2)cc1)C(=O)NC(CC(=O)O)c1ccccc1 (centres unmarked) [compound 1009],> 10

row,SMILES,IC50 [µM]
1,COc1ccc(C(CC(=O)O)NC(=O)C(CC(C)C)N(C)C(=O)Cc2ccc(NC(=O)Nc3ccccc3)cc2)cc1 (centres unmarked) [compound 1193],0.05 to 10
2,COc1nc(CC(=O)NC(CC(C)C)C(=O)NC(CC(=O)O)c2ccc3c(c2)OCO3)ccc1NC(=O)Nc1ccccc1C (centres unmarked) [compound 1336],< 0.05
3,Cc1ccccc1NC(=O)Nc1ccc(CC(=O)NC(CC(C)C)C(=O)NC(CC(=O)O)c2ccc3c(c2)OCO3)cc1 (centres unmarked) [compound 1179],< 0.05
4,CC(C)CC(NC(=O)Cc1ccc(NC(=O)NC2CCCCC2)cc1)C(=O)NC(CC(=O)O)c1ccc2c(c1)OCO2 (centres unmarked) [compound 1068],0.05 to 10
5,CC(C)CC(NC(=O)Cc1cccc(NS(=O)(=O)c2ccccc2)c1)C(=O)NC(CC(=O)O)c1ccccc1 (centres unmarked) [compound 1032],> 10
6,CCc1ccccc1NC(=O)Nc1ccc(CC(=O)NC(CC(C)C)C(=O)NC(CC(=O)O)c2ccc(OC)cc2)cc1 (centres unmarked) [compound 1208],0.05 to 10
7,CC(C)CC(C(=O)NC(CC(=O)O)c1ccccc1)N(C)C(=O)Cc1ccccc1 (centres unmarked) [compound 1114],> 10
8,CC(C)CC(NC(=O)Cc1ccc(O)c([N+](=O)[O-])c1)C(=O)NC(CC(=O)O)c1ccccc1 (centres unmarked) [compound 1112],> 10
9,NCCCCC(NC(=O)Cc1ccc(NC(=O)Nc2ccccc2)cc1)C(=O)NC(CC(=O)O)c1ccccc1 (centres unmarked) [compound 1139],0.05 to 10
10,CC(C)CC(NC(=O)Cc1cccc(O)c1)C(=O)NC(CC(=O)O)c1ccccc1 (centres unmarked) [compound 1097],0.05 to 10
11,CC(C)CC(NC(=O)Cc1ccc(O)cc1)C(=O)NC(CC(=O)O)Cc1ccccc1 (centres unmarked) [compound 1143],> 10
12,COc1ccc(C(CC(=O)O)NC(=O)C(CC(C)C)NC(=O)Cc2ccc(O)cc2)cc1 (centres unmarked) [compound 1173],0.05 to 10
13,CC(C)CC(NC(=O)CCCCCNC(=O)Nc1ccccc1)C(=O)NC(CC(=O)O)c1ccccc1 (centres unmarked) [compound 1106],> 10
14,COc1ccc(C(CC(=O)O)NC(=O)C(CC(C)C)NC(=O)Cc2ccc(NC(=O)Nc3ccccc3C)cc2)cc1 (centres unmarked) [compound 1190],< 0.05
15,CN=C(Nc1ccccc1)Nc1ccc(CC(=O)NC(CC(C)C)C(=O)NC(CC(=O)O)c2ccc3c(c2)OCO3)cc1 (centres unmarked) [compound 1380],0.05 to 10
16,COc1ccc(CC(NC(=O)Cc2ccccc2)C(=O)NC(CC(=O)O)c2ccccc2)cc1 (centres unmarked) [compound 1122],> 10
